Reference: patent US20040219104A1, “Methods for treatment of tumors” (priority 2003, published 2004)

System: JJ5 Breast Cancer cells
Assay: Kinetics of binding, internalization and retention of radioactivity in JJ5 breast cancer cells
Format: cell-based, human
Details: 37° C.
Method: For the normal breast cell line HBL-100, 8000 EGFR/cell has been reported. The expression of EGFR in breast cancer cell lines has a reported range of 800 EGFR/cell for MCF-7 cells to […] for MDA-MB-468 cells. […] Utilizing the Auger electron emitter ^111In was used in the initial experiments to illustrate the utility of the invention using EGF-^111In-labeled transferrin conjugates. The EGF-^111In-labeled transferrin (0.25-80 ng) was incubated with 1.5×10^6 cells/dish JJ5 Breast Cancer (prepared from BCBM JJ5) cells in 1 mL of 0.1% human serum albumin in 35 mm multiwell culture dishes at 37° C. for 30 minutes. The cells were transferred to a centrifuge tube and centrifuged. The cell pellet was separated from the supernatant and counted in a g-scintillation counter to determine bound (B) and free (F) radioactivity. Non-specific binding was determined by conducting the assay in 100 nM hEGF. The kinetics of binding was determined by incubating 1 ng of EGF-^111In-labeled transferrin conjugate with 3×10^6 JJ5 Breast Cancer cells at 37° C. and determining the proportion of radioactivity bound to the cells at various times up to 24 hours. Internalized fraction was measured by determining the proportion of radioactivity which could not be displaced from the cell surface by 100 nM hEGF. […]

**Q.** How did the “binding by the breast cancer cells (kinetics)” value turn out when “EGF-^111In-labeled transferrin conjugate: conjugate containing human epidermal growth factor (EGF) linked (biotin/streptavidin linker) to 111In-radiolabeled human transferrin” was run?
**A.** Its value is “rapidly bound”.
